The source of these data is article PMC6235670, “An mTOR Signaling Modulator Suppressed Heterotopic Ossification of Fibrodysplasia Ossificans Progressiva” (Stem Cell Reports, 2018).

Data set [1] relates to NOD/SCID mice transplanted with FOP-iMSCs. The source says:
MTOR s604 […]tt […]at […]
For X- ray images, mice were anesthetized with isoflurane (5% for induction, 2-3% for maintenance, Abbvie), immobilized and X-rayed using µFX-1000 (Fujifilm) or DX-50 (Faxitron Bioptics). µCT images were scanned using X-ray CT systems (inspeXio SMX-100CT, Shimadzu) and analyzed with TRI/3D-BON software (Ratoc System Engineering) according to the manufacturer's instructions. […]
Activin-A-induced HO model transplanted with FOP-iMSCs. FOP- (right leg) and resFOP-iMSCs (left leg) (4 x 10^6 cells, respectively) were transplanted into the gastrocnemius muscle of NOD/ShiJic-scid Jcl (NOD/SCID) mice (8 weeks, male, CLEA Japan) with C3H -DoxOn-hINHBA (5 x 10^5 cells), which can continuously expose Activin-A to the transplanted iMSCs in vivo ( Hino et al., 2015) . In the Dox-induced group, 1 mg/mL Dox (Sigma-Aldrich) was administered via drinking water with 10 mg/mL sucrose (Nacalai Tesque) for two weeks after transplantation. Compounds were intraperitoneally administered once a day, five times a week. Eight weeks after transplantation, the transplanted cells were harvested , fixed with 4% paraformaldehyde for 24 h, embedded in paraffin, and sectioned and stained with HE, von Kossa, Safranin O, human specific anti-Vimentin antibody and Collagen I antibody as previously described (Hino et al., 2015; Umeda et al., 2012; […]

For data set [2], the system named is FOP-iMSCs. Kind of data set: 2D chondrogenic induction of FOP-iMSCs with activin A (GAG, Alcian blue). The format is cell-based, human.
The test system of another data set is resFOP-iMSCs. The source says:
(§1) Generation of ATDC5 stably expressing ACVR1. WT - or FOP-ACVR1 was inserted into doxycycline (Dox)- inducible vector KW111 (Woltjen et al., 2009), which enables us to easily produce stably expressing cell lines utilizing the piggyBac (PB) transposon system from the cabbage looper moth Trichoplusia ni (Ding et al., 2005) (KW111/WT-ACVR1 or KW111/FOP-ACVR1). KW111/WT-ACVR1 or KW111/FOP-ACVR1 and PBaseII plasmid (PB transposase expression vector) ( Matsui et al., 2014 ) were co-transfected into ATDC5 cells by FuGeneHD® (Promega) according to the manufacturer’s protocol, and the neomycin- resistant population (500 µg/mL) was selected. Further selection was performed by selecting a mCherry high positive population (< 5%) after six hours of Dox treatment, sorting it with fluorescent-activated cell sorting (FACS) using AriaII (BD) according to the manufacturer’s protocol, and designating it as ATDC5/WT-ACVR1 or ATDC5/FOP-ACVR1. […]
(§2) HTS campaign and follow-up screens. […] After 3 days incubation, Alkaline Phosphatase activity (ALP) or AlamarBlue activity was measured using Amplite™ Colorimetric Alkaline Phosphatase Assay Kit (AAT Bioquest) or alamarBlue® Cell Viability Reagent (Thermo Fisher Scientific) according to the manufacturer’s protocol, respectively. T h e absorbance at 400 nm (Abs for ALP) or Relative Fluorescent Unit of Ex560/Em590 nm (RFU for AlamarBlue) was measured on POWERSCAN4 (DS Pharma Biomedical) or EnVision® Multilabel Reader (PerkinElmer).
(§3) Inhibitory effects of the screened compounds are given as percent inhibition, which was calculated using the following equation: (1-([Abs of compound] - [Abs of Min])/([Abs of Max] - [Abs of Min]))× 100, where [Abs of Max] and [Abs of Min] are the mean Abs of DMSO control and 1 µM DMH-1, respectively. The Z’ factor, which is widely used as a measure of the assay quality of each plate, was calculated using the following equation: Z’ factor = 1 - 3 × ([SD of Max] + [SD of Min])/([Abs of Max] - [Abs of Min]) (SI Appendix, Fig. […]

The test system of data set [3] is FOP-iMSCs. The settings on record: TGF-β3 10 ng/mL, 7 days, 1 nM-1 µM.
From the text: as §1, §2, §3

`FC(F)(F)c1ccc(/C=C/c2nc(COc3ccc(CCCCn4ccnn4)cc3)co2)cc1` [TAK 165, mubritinib]: in data set [1] (5 mg/kg i.p.), the “anti-human-specific vimentin-positive cells (survival of transplanted cells)” value is listed as “large number”; the “body weight change compared with vehicle group” value is on record as “No significant differences”; the “hypertrophic chondrocytes and von Kossa- and COL1-positive bone regions” value is listed as “fewer”. Further, the “HO derived from FOP-iMSCs (heterotopic bone volume)” value in data set [1] (5 mg/kg i.p. once daily, five times a week, 8 weeks after transplantation) was “significantly suppressed”. In the data set on FOP-iMSCs [2] (1 μM, activin A, 7 days), the “inhibition of glycosaminoglycan (GAG) production” value is listed as “potent inhibition”. In addition, the “suppression of chondrogenic induction (GAG), dose dependence” value in the data set on FOP-iMSCs [2] (activin A, 7 days) is listed as “dose-dependent”. The Alcian blue staining result in the data set with FOP-iMSCs [2] (compared with other HTS hits) is “obviously different effects”. Further, the “chondrogenesis of resFOP-iMSCs stimulated with Activin-A (GAG)” value in the data set on resFOP-iMSCs (Activin-A 100 ng/mL, 7 days, 1 nM-1 µM) is reported as “suppressed”. Further, the “effect on FOP cells versus normal cells” value with resFOP-iMSCs (FOP-iMSCs vs resFOP-iMSCs) is listed as “stronger effects on FOP cells than on normal cells”. Also, the “chondrogenesis of FOP-iMSCs stimulated with TGF-β3 (GAG)” value in the data set on FOP-iMSCs [3] is reported as “suppressed”.
